Read-outs that look alike come from different tables or passages of the source.
Experiments:
[1] = tested on: library of polynucleotides; assay: Sequencing-by-binding run, On/Off signal intensity by cycle; type: biochemical; conditions: after 150 cycles, CDP versus SOP (sodium NO2)
Method: A library of polynucleotides were sequenced in a sequencing-by-binding workflow, and On/Off signal intensity was measured in each sequencing cycle, as described in US Patent Pub. No. 2020/0032317, the content of which is incorporate herein. Specifically, ‘on’ signal intensity (corresponds to the binding of the cognate nucleotide) and ‘off’ signal intensity (corresponds to the binding of the non-cognate nucleotide) in each SBB cycle. By using [NaNO2] 2 M and considering pH 5.2 and based on Henderson-Hasselbalch equation, we calculated that 18 mM of the nitrous acid exists in CLV (Cleave) reagent. Although, this cleave formulation is efficient in converting dNTP-RT to dNTP on the sequencing strand, however, it may have one or more disadvantages, such as instability, corrosivity, and/or DNA damage. Regarding instability: nitrous acid in our current CLV reagent degrades and produces nitrogen oxide gas (NOx) which weaken strength of the deblocking reagent. Nitrous acid is very corrosive and has […] with plastics consumables and instruments.
Y axis is on/off intensities. […] A library of polynucleotides were sequenced in a sequencing-by-binding workflow, and On/Off signal intensity was measured in each sequencing cycle, as described in US Patent Pub. […]

[2] = Solubility of the deblocking agent in the deblocking composition; type: physicochemical; conditions: in words
Method: (§1) CDP was formulated with a number of different buffers at different pH and various different amines as solubility enhancers. 47 formulations were made and tested. In general, CDP was dissolved in water and loaded onto Dowex 50™ cation exchange resin, and incubated for a few minutes. The resin was eluted with an aqueous solution of the amine solubility enhancer. The resulting solution was either used directly in Octet/CE assays or dried form a solid that was very soluble in water.

[3] = tested on: NO bond at the 3′ position of a polynucleotide; assay: Octet/CE cyclic extension assay (SBB extension cycles, extended primer length read by capillary electrophoresis); type: biochemical
Excerpt: The polynucleotides were Cy3-primers hybridized to biotinylated template DNA which were in turn bound to streptavidin coated tips of the Octet system. The Octet system move a set of 8 tips between the wells of a heated 96-well plate, for a set number of SBB extension cycles. Each cycle included an IMG step under conditions at which fluorescent nucleotides of ternary complexes could be imaged, an RTN step in which amineoxy terminated nucleotides were incorporated at the 3′ end of the primer by a polymerase, a wash step that removes excess nucleotides, and a CLV step that exposes the amineoxy terminated extended primer to a deblocking agent or candidate. The length of extended polynucleotides were then detected by capillary electrophoresis (CE), as described in US Patent Pub. No. 2019/0241945, the content of which is incorporated herein.
Polynucleotide sequence was synthesized using the Octet/CE method where non-extendable polynucleotides having a 3′ amineoxy group were used to reversibly stop extension, as shown in the workflow scheme of FIG. 1A.
as §1
A number of other carbonyl compounds were test for their ability to cleave the NO bond at the 3′ position of a polynucleotide, according to the assay design shown in FIG. 1A.
Deblocking candidates were tested at various concentrations, generally between 1 and 100 mM (e.g., at 1 mM, 2 mM, 4 mM, 8 mM, 20 mM, 35 mM, 40 mM, 70 mM, and/or 100 mM for different candidates), in acetate (1 M) and tris (0.2 M) buffers, and buffered at pH 6 or 8, with and without amine counterion.

[4] = compared to SOP cleave in sodium acetate buffer, in words

Compound	Extension at 40 C. in 37 cycles Octet CE assay [3]	cleavage of NO bond (deblocking, extension in multiple cycles) ([3]; in words)	Extension at 52 C. in 37 cycles octet/Ce assay [3] [bp Extension]	other results
O=C(P(=O)(O)O)P(=O)(O)O [CDP, Carbonyl diphosphonate]	37 bp Extension	deblocking	–	signal to noise ratio [1]: comparable; solubility issue [2]: slight solubility issue; cleavage of NO bond (deblocking, extension in multiple cycles) [3]: comparable to NaNO2; negative phasing ([3]; 37 cycles of extension): 0.21%; positive phasing ([3]; 37 cycles of extension): 0.17%; negative dephasing on electropherogram [3, 4]: higher negative dephasing; positive dephasing on electropherogram [3, 4]: higher positive dephasing; dephasing of product ([3]; compared to SOP, in words): minimal dephasing
O=Cc1ccc(S(=O)(=O)[O-])cc1S(=O)(=O)[O-].[Na+].[Na+] [Di sodium 4-formylbenzene-1,3-disolfonate]	3 bp Extension	deblocking	3	–
CCC(=O)CP(=O)([O-])[O-].[Na+].[Na+] [Di sodium (2-oxobutyl)phosphonate]	4 bp Extension	deblocking	4	–
CC(=O)P(=O)([O-])[O-].[Na+].[Na+] [Di sodium acetylphosphonate]	12 bp Extension	deblocking	3	–
CNC(=O)NC [Dimethyl urea, reference compound]	No Extension	–	–	–
CC(=O)OP(=O)([O-])[O-].[K+].[Li+] [LiK Aceyl Phosphate, reference compound]	No Extension	–	–	–
CS(=O)(=O)CC(=O)c1ccccc1 [Methyl sulfonyl acetophenone]	5 bp Extension	deblocking	5	–
O=N[O-].[Na+] [NaNO2, sodium nitrite, reference compound]	–	–	–	negative phasing [3]: 0.04%; positive phasing [3]: 0.05%
COP(=O)([O-])C(C)=O.[Na+] [methyl acetylphosphonate, methyl acetylphosphonate CH3—CO—PO(Ome)—O^− Na^+, reference compound]	No Extension	–	–	–
Hydroxycarbamide [reference compound]	No extension	–	–	–
